Data published in patent US20100056555A1, “METHOD OF TREATING RAS ASSOCIATED CANCER” (ENZON PHARMACEUTICALS, INC., priority 2008, published 2010).
Where “and” joins values, the source holds several entries; their conditions need not be identical. Equal entries are not always repeated. Where two headings read alike, the source gives them in different places.

Key:
[1] = test system: MiaPaCA-2 pancreatic cells; test: Kras mutant pancreatic cancer xenograft model (MiaPaCa-2); format: in vivo, human; settings: MiaPaCa-2 xenograft mice
[2] = test system: SW480 Human colorectal carcinoma cells; test: SW480 human colorectal xenografts, Erbitux failed tumors; settings: 40 mg/kg q2dx7 after C-225 challenge; SW480 xenograft mice; Day 22
[3] = test system: Calu-6 Human Lung Carcinoma cells; test: Calu 6 Kras mutant xenografts that failed C225 (Erbitux) therapy; settings: 40 mg/kg q2dx5 after C-225 challenge, Calu-6 xenograft mice
[4] = test system: Calu-6 Human Lung Carcinoma cells; settings: Calu-6 xenograft mice; for % T/C / % TGI: day 20; for Observed cures: day 57
[5] = test system: SW480 Human colorectal carcinoma cells; test: Kras mutant xenograft model of human colorectal cancer (SW480), single agent therapy; settings: SW480 xenograft mice, Day 22

SMILES: CCc1c2c(nc3ccc(OC(=O)N4CCC(N5CCCCC5)CC4)cc13)-c1cc3c(c(=O)n1C2)COC(=O)[C@]3(O)CC [CPT-11, Irinotecan]
- TGI ([1]; CPT-11 at corresponding dose level as compound 9 (10 mg/kg, q2d×5)): 20%
- TGI ([1]; multiple-dose at MTD of CPT-11 (40 mg/kg q2d×5)): 47%
- effect on tumor growth ([1]; single dose at the MTD (80 mg/kg qd×1)): no effect on tumor growth
- % TGI [2]: 65.38%
- Percent Change in TV [2]: 219.31%
- % TGI ([3]; day 20): 84%
- Observed cures ([3]; day 57): 0/8
- % T/C ([4]; 40 mg/kg q2dx5): 5%
- % TGI ([4]; 40 mg/kg q2dx5): 95%
- Observed cures ([4]; 40 mg/kg q2dx5): 0/8
- day by which animals relapsed ([4]; 40 mg/kg q2d×5): 40 to 45 days
- % T/C ([4]; 80 mg/kg qdx1): 48%
- % TGI ([4]; 80 mg/kg qdx1): 52%
- Observed cures ([4]; 80 mg/kg qdx1): 0/8
- day by which all animals had to be sacrificed due to excessive tumor burden ([4]; 80 mg/kg qd×1): 22 to 24 days
- % TGI ([5]; 40 mg/kg q2dx5): 65% and 64.76%
- Percent Change in TV ([5]; 40 mg/kg q2dx5): 163.62%
- % T/C ([5]; 80 mg/kg qdx1): 66.60%
- % TGI ([5]; 80 mg/kg qdx1): 47% and 46.53%
- Percent Change in TV ([5]; 80 mg/kg qdx1): 397.75%
